SMILES strings stand for the structures.

A word on the IC50: it is the concentration at which inhibition is half-maximal. A word on the inhibition: it is the relative decrease from the control value, in per cent.

Recombinant human HSD17B13 enzyme, sequence (Q7Z5P4 20-300): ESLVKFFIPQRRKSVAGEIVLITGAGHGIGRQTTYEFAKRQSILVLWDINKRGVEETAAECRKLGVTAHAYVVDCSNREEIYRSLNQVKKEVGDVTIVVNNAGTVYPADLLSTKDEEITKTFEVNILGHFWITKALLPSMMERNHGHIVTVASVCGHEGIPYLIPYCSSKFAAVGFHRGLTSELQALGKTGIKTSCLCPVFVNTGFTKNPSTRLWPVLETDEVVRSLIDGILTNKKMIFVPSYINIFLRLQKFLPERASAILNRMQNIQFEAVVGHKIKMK

One assay has as its target Recombinant human HSD17B13 enzyme (Homo sapiens (Human), UniProt Q7Z5P4). Put plainly: HSD17b13 NAD(P)H-Glo Biochemical Assay. Conditions: 50 uM estradiol, 1 mM NAD+; read-out: HSD17β13 IC50. The essentials: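 Luminescent NAD(P)H-Glo detection (1 h, RT) quantified cofactor reduction after a 3 h, 37° C reaction of human HSD17B13 with estradiol (50 uM final) and NAD+ (1 mM final). Compounds were first pre-incubated 20 min at RT with enzyme in Tris pH 7.4 buffer containing Tween-20 and BSA.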
Turning to `CS(=O)(=O)N1CCN(c2cc3cn(-c4ccc(Cl)c(O)c4)nc3cn2)CC1` [Compound 19.15, 2-Chloro-5-(5-(4-(methylsulfonyl)piperazin-1-yl)-2H-pyrazolo[3,4-c]pyridine-2-yl)phenol], the concentration for half-maximal inhibition (IC50) lay within 1 to 30 µM. `CS(=O)(=O)N1CCN(c2cc3cnn(-c4cc(O)cc(C(F)(F)F)c4)c3cn2)CC1` [Compound 19.16, 3-(5-(4-(Methylsulfonyl)piperazin-1-yl)-1H-pyrazolo[3,4-c]pyridine-1-yl)-5-(trifluoromethyl)phenol]: the concentration for half-maximal inhibition (IC50) was in the range of 1 to 30 µM. Same read-out and setting: under `CS(=O)(=O)N1CCN(c2cc3cnn(-c4cc(O)c(Cl)c(F)c4)c3cn2)CC1` [Compound 19.17, 2-Chloro-3-fluoro-5-(5-(4-(methylsulfonyl)piperazin-1-yl)-1H-pyrazolo[3,4-c]pyridine-1-yl)phenol] stands 1 to 30 µM; under `CS(=O)(=O)N1CCN(c2cc3cn(-c4cc(O)c(Cl)c(F)c4)nc3cn2)CC1` [Compound 19.18, 2-Chloro-3-fluoro-5-(5-(4-(methylsulfonyl)piperazin-1-yl)-2H-pyrazolo[3,4-c]pyridine-2-yl)phenol], 0.1 to 1 µM; under `CS(=O)(=O)N1CCN(c2cc3cnn(-c4cc(O)c(F)cn4)c3cn2)CC1` [Compound 19.19, 5-Fluoro-2-(5-(4-(methylsulfonyl)piperazin-1-yl)-1H-pyrazolo[3,4-c]pyridine-1-yl)pyridine-4-ol], 1 to 30 µM. Take `CS(=O)(=O)N1CCN(c2cc3cn(-c4cc(O)c(F)cn4)nc3cn2)CC1` [Compound 19.20, 5-Fluoro-2-(5-(4-(methylsulfonyl)piperazin-1-yl)-2H-pyrazolo[3,4-c]pyridine-2-yl)pyridine-4-ol]: the concentration for half-maximal inhibition (IC50) is 1 to 30 µM.

In the case of `CS(=O)(=O)N1CCN(c2cc3cnn(-c4cc(O)c(F)c(Cl)c4)c3cn2)CC1` [Compound 19.21, 3-Chloro-2-fluoro-5-(5-(4-(methylsulfonyl)piperazin-1-yl)-1H-pyrazolo[3,4-c]pyridine-1-yl)phenol], the IC50 lay in the range of 0.1 to 1 µM. The same measure, in the same setting: under `CS(=O)(=O)N1CCN(c2cc3cn(-c4cc(O)c(F)c(Cl)c4)nc3cn2)CC1` [Compound 19.22, 3-Chloro-2-fluoro-5-(5-(4-(methylsulfonyl)piperazin-1-yl)-2H-pyrazolo[3,4-c]pyridine-2-yl)phenol] stands 0.1 to 1 µM; under `Cc1cc(-n2ncc3cc(N4CCN(S(C)(=O)=O)CC4)ncc32)cc(O)c1F` [Compound 19.23, 2-Fluoro-3-methyl-5-(5-(4-(methylsulfonyl)piperazin-1-yl)-1H-pyrazolo[3,4-c]pyridine-1-yl)phenol], 1 to 30 µM; under `Cc1cc(-n2cc3cc(N4CCN(S(C)(=O)=O)CC4)ncc3n2)cc(O)c1F` [Compound 19.24, 2-Fluoro-3-methyl-5-(5-(4-(methylsulfonyl)piperazin-1-yl)-2H-pyrazolo[3,4-c]pyridine-2-yl)phenol], 1 to 30 µM. The same measure, in the same setting: under `CS(=O)(=O)N1CCN(c2cc3cnn(-c4ccc(C(F)(F)F)c(O)c4F)c3cn2)CC1` [Compound 19.25, 2-Fluoro-3-(5-(4-(methylsulfonyl)piperazin-1-yl)-1H-pyrazolo[3,4-c]pyridine-1-yl)-6-(trifluoromethyl)phenol] stands 1 to 30 µM; under `CS(=O)(=O)N1CCN(c2cc3cn(-c4ccc(C(F)(F)F)c(O)c4F)nc3cn2)CC1` [Compound 19.26, 2-Fluoro-3-(5-(4-(methylsulfonyl)piperazin-1-yl)-2H-pyrazolo[3,4-c]pyridine-2-yl)-6-(trifluoromethyl)phenol], 1 to 30 µM; under `CS(=O)(=O)N1CCN(c2cc3cnn(-c4ccc(Cl)c(O)c4F)c3cn2)CC1` [Compound 19.27, 6-Chloro-2-fluoro-3-(5-(4-(methylsulfonyl)piperazin-1-yl)-1H-pyrazolo[3,4-c]pyridine-1-yl)phenol], 1 to 30 µM. As for `Cc1cc(-n2ncc3cc(N4CCN(S(C)(=O)=O)CC4)ncc32)c(F)c(O)c1F` [Compound 19.28, 2,6-Difluoro-3-methyl-5-(5-(4-(methylsulfonyl)piperazin-1-yl)-1H-pyrazolo[3,4-c]pyridine-1-yl)phenol], the IC50 lay in the range of 1 to 30 µM. Still for that read-out and setting: next, `CS(=O)(=O)N1CCN(c2cc3cnn(-c4cc(F)c(F)c(O)c4F)c3cn2)CC1` [Compound 19.29, 2,3,6-Trifluoro-5-(5-(4-(methylsulfonyl)piperazin-1-yl)-1H-pyrazolo[3,4-c]pyridine-1-yl)phenol]: 0.1 to 1 µM; `CS(=O)(=O)N1CCN(c2cc3cn(-c4cc(F)c(F)c(O)c4F)nc3cn2)CC1` [Compound 19.30, 2,3,6-Trifluoro-5-(5-(4-(methylsulfonyl)piperazin-1-yl)-2H-pyrazolo[3,4-c]pyridine-2-yl)phenol]: 0.1 to 1 µM.

Regarding `CS(=O)(=O)N1CCN(c2cc3cnn(-c4ncc(Cl)c(O)c4F)c3cn2)CC1` [Compound 19.31, 5-Chloro-3-fluoro-2-(5-(4-(methylsulfonyl)piperazin-1-yl)-1H-pyrazolo[3,4-c]pyridine-1-yl)pyridine-4-ol], the half-maximal inhibitory concentration (IC50) lay in the range of 1 to 30 µM. On to `CC1(C)COCCN1c1cc2cnn(-c3cc(O)c(F)c(C(F)(F)F)c3)c2cn1` [Compound 19.32, 5-(5-(3,3-Dimethylmorpholino)-1H-pyrazolo[3,4-c]pyridine-1-yl)-2-fluoro-3-(trifluoromethyl)phenol], for which the IC50 lay within 0.1 to 1 µM. As for `CC1CN(S(C)(=O)=O)CCN1c1cc2cnn(-c3cc(O)c(F)c(C(F)(F)F)c3)c2cn1` (stereo not shown) [Compound 19.33, 2-Fluoro-5-(5-(2-methyl-4-(methylsulfonyl)piperazin-1-yl)-1H-pyrazolo[3,4-c]pyridine-1-yl)-3-(trifluoromethyl)phenol], the IC50 fell in the range of 0.1 to 1 µM.

For `CC1CN(S(C)(=O)=O)CCN1c1cc2cn(-c3cc(O)c(F)c(C(F)(F)F)c3)nc2cn1` (stereo not shown) [Compound 19.34, 2-Fluoro-5-(5-(2-methyl-4-(methylsulfonyl)piperazin-1-yl)-2H-pyrazolo[3,4-c]pyridine-2-yl)-3-(trifluoromethyl)phenol], the IC50 fell in the range of 0.1 to 1 µM. On the same count and under the same terms, under `CS(=O)(=O)N1CCN(c2cc3cnn(-c4cc(C(F)(F)F)c(F)c(O)c4F)c3cn2)CC1` [Compound 19.38, 2,6-Difluoro-3-(5-(4-(methylsulfonyl)piperazin-1-yl)-1H-pyrazolo[3,4-c]pyridine-1-yl)-5-(trifluoromethyl)phenol] stands 0.1 to 1 µM.

Consider `CS(=O)(=O)N1CCN(c2cc3cnn(-c4cccc(O)c4C#N)c3cn2)CC1` [Compound 19.39, 2-Hydroxy-6-(5-(4-(methylsulfonyl)piperazin-1-yl)-1H-pyrazolo[3,4-c]pyridine-1-yl)benzonitrile], for which the IC50 lay in the range of 1 to 30 µM.

The assay is the same for the next values; noted with them: read-out: HSD17β13 inhibition at 30 uM.
On to `CS(=O)(=O)N1CCN(c2cc3cn(-c4cc(O)cc(C#N)c4)nc3cn2)CC1` [Compound 19.35, 3-Hydroxy-5-(5-(4-(methylsulfonyl)piperazin-1-yl)-2H-pyrazolo[3,4-c]pyridine-2-yl)benzonitrile], for which the inhibition at 30 µM is 49%. For `CS(=O)(=O)N1CCN(c2cc3cnn(-c4ccc(C#N)c(O)c4)c3cn2)CC1` [Compound 19.36, 2-Hydroxy-4-(5-(4-(methylsulfonyl)piperazin-1-yl)-1H-pyrazolo[3,4-c]pyridine-1-yl)benzonitrile], the inhibition at 30 µM came out at 40%. As to `CS(=O)(=O)N1CCN(c2cc3cn(-c4ccc(C#N)c(O)c4)nc3cn2)CC1` [Compound 19.37, 2-Hydroxy-4-(5-(4-(methylsulfonyl)piperazin-1-yl)-2H-pyrazolo[3,4-c]pyridine-2-yl)benzonitrile], the inhibition at 30 µM turned out to be 43%.

For the origin of these results see patent US20240034736A1, “HSD17B13 INHIBITORS AND USES THEREOF” (FL2022-001, Inc., priority 2020, published 2024).
